For data set [1], the target named is T1, Biot-Hif-1α^786-826/GST-p300^323/423 (Homo sapiens, UniProt Q09472).
T1 construct: the p300 region comprised between the 323-423 aminoacids; made in house; host or cells: E. coli BL21 (DE3), vector pGEX-4T-1
Nature of the data set: Inhibition of Hif-1α/p300 interaction, DELFIA fluorescence assay. The format is binding. As to conditions: for inhibition of the interaction between Hif-1α and p300 (in words): fluorescency assay adapted from Freedman et al.

The subject of a further data set is HeLa. The note with it: HeLa cells; T. Saito et al. 1985; cited from earlier work.
The next data set relates to VEGF promoter. Description: Luciferase assay for inhibition of the VEGF promoter in Hep3B-VEGF Luciferase cells. The format is cell-based, human. As to conditions: deferoxamine 100 μM, 18-20 h, read-out: IC50 for inhibition of luciferase signal (VEGF promoter).
Another data set concerns secreted VEGF. Description: Secreted VEGF ELISA test in Hep3B-VEGF Luciferase cells under deferoxamine-induced hypoxia. The format is cell-based, human. The note with it: deferoxamine 100 μM, 18-20 h, read-out: IC50 for inhibition of secreted VEGF (ELISA).
The subject of a further data set is tumor growth. As to conditions: tumor-bearing mice; Kung et al. 2004; cited from earlier work.

Read-outs that look alike come from different tables or passages of the source.

T1 sequence (Q09472 323-423): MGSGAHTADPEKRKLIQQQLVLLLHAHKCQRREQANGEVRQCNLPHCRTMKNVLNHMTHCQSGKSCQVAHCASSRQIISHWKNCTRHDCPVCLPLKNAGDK

For orientation: IC50 means the point on the concentration scale where inhibition reaches its midpoint. As for `CN1C(=O)[C@@]23CC4([C@]56C[C@@]78SS[C@@](CO)(C(=O)N7[C@H]5Nc5ccccc56)N(C)C8=O)c5ccccc5N[C@@H]4N2C(=O)[C@]1(CO)SS3` (stereo partly shown) [chaetocin], the IC50 amounted to 12500 nM in data set [1], 40 nM in the data set on VEGF promoter (Homo sapiens) and 100 nM with secreted VEGF (Homo sapiens). Besides, in data set [1], the “inhibition of the interaction between Hif-1α and p300 (in words)” value was “able to inhibit the interaction between Hif-1α and p300”. In the data set on HeLa, the “cytotoxic activity IC50” value is “about 0.03 μg/mL”.

On to `CN1C(=O)[C@]23SS[C@@]1(CO)C(=O)N2[C@H]1Nc2ccccc2C1([C@@]12c4ccccc4N[C@@H]1N1C(=O)[C@]4(CO)SS[C@]1(C(=O)N4C)[C@H]2O)[C@@H]3O` (stereo partly drawn) [11α,11α′-dihydroxy Chaetocin, reference compound], for which, in the data set on HeLa, the “cytotoxic activity IC50” value is “about 0.03 μg/mL”.

Consider gliotoxin, for which the “inhibition of the interaction between Hif-1α and p300 (in words)” value in data set [1] is “able to inhibit the interaction between Hif-1α and p300”. For the same compound, the half-maximal inhibitory concentration (IC50) was 50 nM in the data set with VEGF promoter and 200 nM with secreted VEGF.

Regarding `CN1C(=O)[C@]2(Cc3cn(C45C[C@@]67SS[C@@](CO)(C(=O)N6[C@H]4Nc4ccccc45)N(C)C7=O)c4ccccc34)SS[C@@]1(CO)C(=O)N2C` (stereo partly shown) [chaetomin], in the data set with tumor growth, the “tumor growth and hypoxia-induced transcription in the tumor (in words)” value is “inhibits hypoxia-induced transcription in the tumor and tumor growth”.

The values above are taken from patent US20080255099A1 (priority 2004, published 2008).
